Reference: patent US20240226085A1, “KYNRENINE AND DERIVATIVES THEREOF FOR TREATING ATROPHIC SCARRING” (BirchBioMed Inc., priority 2021, published 2024)

Legend:
[1] = system: rabbit ear hypertrophic scarring model; conditions: topical application to skin tissue; '523 FIG. 13; cited from earlier work
[2] = system: atrophic acne scarring on the face; assay: Topical kynurenic acid (0.5% by weight) cream for reducing appearance of atrophic acne scarring (individual user reports); type: in vivo, human; conditions: person
Source text: FIG. 1A is a photographic representation of a target facial skin area of a subject with treatment-resistant stable atrophic scarring from acne before application of topical kynurenic acid (0.5% by weight) cream.
FIG. 1B is a photographic representation of the target facial skin area of the subject of FIG. 1A after bidaily use of topical kynurenic acid (0.5% by weight) for 8 weeks. […] The dashed black box in each image highlights the similar target area on the right cheek region in both images for comparison.
I. A topical cream was made as follows, kynurenic acid was solubilized in a phosphate buffered solution of 1 M NaOH and the pH was then adjusted to 5.5 at room temperature, this KynA solution was then added with steady mixing to a dermatological compounding base (Glaxal Base™, WellSpring, Ont., Canada) and adjusted to a pH of 6 before packaging in poly bottles. Topical cream was made at 0.15%, 0.25%, 0.4%, and 0.5% kynurenic acid by weight (Papp et al., 2018).
A person presented with significant atrophic acne scarring on the face and self-reported that their acne scars had been treatment resistant for >20 years. The person applied a topical cream containing 0.5% kynurenic acid by weight twice daily for a 3-month period to the site of the atrophic acne scarring, an application rate of approximately 17 ug of kynurenic acid per cm^2 of skin per application. Initial dermatological healing can be followed by visual inspection of the site. […] An illustrative image of the “before” and “during use” is shown as FIG. 1.
A person with atrophic acne scarring on the face self-reported that the scars were “mature”, “stable”, and had persisted for “>3 years”. The person applied a topical cream containing 0.5% kynurenic acid by weight once daily for a 2-month period at an application rate of approximately 2.5-5 micrograms kynurenic acid per square cm of skin per application.

dermal fibroblasts = conditions: cited from earlier work

SMILES | MMP-1 relative to controls [1] | collagen relative to controls [1] | remarks of others on the user's atrophic acne scars ([2]; topical cream 0.5% by weight once daily, 2-month period) | user-reported appearance of holes and indents of atrophic acne scars ([2]; topical cream 0.5% by weight once daily, 2-month period, approx. 2.5-5 micrograms per square cm per application) | time at which the reported reduction in appearance started ([2]; topical cream 0.5% by weight twice daily) | unsolicited feedback from others on appearance of acne [atrophic scarring] ([2]; topical cream 0.5% by weight twice daily, 3-month period) | subject-reported perceived appearance of atrophic acne scarring ([2]; topical cream 0.5% by weight twice daily, 3-month period, approx. 17 ug per cm^2 per application) | MMP-1 expression (dermal fibroblasts; '523 FIG. 2) | MMP-3 expression (dermal fibroblasts; '523 FIG. 3) | collagen 1 expression (dermal fibroblasts; '523 FIG. 10) | fibronectin expression (dermal fibroblasts; '523 FIG. 16)
Nc1ccccc1C(=O)CC(N)C(=O)O (racemic) [kynurenine] | increased | decreased | – | – | – | – | – | – | – | – | –
O=C(O)c1cc(=O)c2ccccc2[nH]1 [kynurenic acid] | – | – | less visible or less noticeable | less visible and less noticeable and appeared to be filling in | approximately 2 weeks | markedly less apparent | significant reduction | increase | increase | downregulate | downregulate
